These results are taken from patent US20030211168A1, “Drug carrier pellet production process” (priority 2000, published 2003).

As a reminder, the solubility is how much of the substance goes into solution per volume. Low values mean a poorly soluble substance, high ones a readily soluble substance.

A short description of data set [1]: Particle size of active drug substance. The data set is classed as physicochemical. Conditions: drug substance raw material.
Data set [2] is described as follows: Solubility of active drug substances in water. The data set is classed as physicochemical.

Structures can show the parent of a compound that is named as a salt. Where only a bound is given, the exact number is not on record here.

As to `NS(=O)(=O)c1cc(C(=O)O)c(NCc2ccco2)cc1Cl` [Furosemide], the Particle size in data set [1] was under 10 μm.

In turn, `COc1ccc([C@@H]2Sc3ccccc3N(CCN(C)C)C(=O)[C@@H]2OC(C)=O)cc1` [Diltiazem hydrochloride] registered a solubility in data set [2] of over 100 mg/mL.
